# Experiments:
# Format in all cases: cell-based
# [1] = test system: androgen receptor (AR) gene; assay: RT-qPCR expression of AR in LNCaP cells; details: 500 nM, 72 hours
# Description: (§1) LNCaP cells were seeded to either 6 cm or 10 cm dishes at 800,000 or 2,200,000 cells/dish respectively. Cells were allowed to attach for 24 hours and then subsequently treated with either compound 17 (500 nM) or DMSO for 72 hours. Cells were then harvested with Trizol reagent (Ambion) and RNA integrity was verified via agarose gel electrophoresis. […] was utilized following manufacturer instructions and as described previously, as described in Deng et al., Oncogene 2017, 36 (9), 1223-123; Hsu et al., Mol. Cell. Endocrinol. 2013, 372 (1-2), 12-221; and Zhang et al., Biochim. Biophys. Acta 2014, 1839 (11), 1330-1340, each of which is incorporated herein by reference in its entirety for its teachings regarding same. RT-qPCR was performed with FastStart Universal SYBR Green Master Mix (Thermo Fisher Scientific) and detected on a QuantStudio 6 Flex with QuantStudio Real-Time PCR control software (Thermo Fisher Scientific). QuantStudio Design and Analysis software (Thermo Fisher Scientific) was used for data analysis. Technical triplicates were run for all samples, samples without detectable amplification were deemed undetected. Primer sets were validated via melt curve and agarose gel analysis of RT-qPCR product. AR primers were used as described in Deng et al., Oncogene 2017, 36 (9), 1223-123. […]
# Involucrine (IVL) gene = assay: RT-qPCR expression of IVL in LNCaP cells; details: 500 nM, 72 hours
# Description: as §1
# PTEN = assay: RT-qPCR expression of PTEN in LNCaP cells; details: 500 nM, 72 hours
# Description: as §1
# [2] = target: T1, PRMT5:MEP50 protein-protein interaction (Homo sapiens, UniProt O14744); assay: BiFC drug screen of PRMT5:MEP50 interaction in COS-1 cells; set-up: expressed in transfected cells; host or cells: COS-1; details: for rank in BiFC screen (inhibition of PRMT5:MEP50): 18 hours
# Description: (§2) BiFC Drug Screens: COS-1 cells were grown in DMEM and seeded to 50,000 cells/well of a 12-well plate and allowed to attach for 24 hours. Cells were then transfected with three plasmids pMyc-VN155-PRMT5, pHA-VC-MEP50, and pFLAG-NLS-CFP to visualize the interaction between PRMT5:MEP50. For BiFC screens, the COS-1 cells were treated with compound or DMSO to final concentration (10 μM for compound 1-12 screen and 0.25, 0.50, 0.75, 1.0, and 5.0 μM or subsequent compound 8 screen) six hours after transfection and returned to the incubator. Following 24 hours after transfection, cells were imaged on a Nikon TE-2000U microscope and images for CFP, YFP, and phase contrast were acquired using MetaMorph software (Nikon) with 20× objective. Images were analyzed with ImageJ^70. Regions of Interest (ROI) were selected around each cell, and mean intensity was measured for each selection. A YFP:CFP ratio was calculated for DMSO as well as control treatment cells. The YFP:CFP ratio was then normalized to that of DMSO to generate the BiFC Efficiency score. The lower score indicated less PRMT5:MEP50 PPI detected in a given cell or treatment group. Inhibition (% Inhibition) is calculated as a percent of 100%−the BiFC Efficiency. Referring to FIGS. 6A-6C, for the BiFC screen of compounds 13-22 (including 8a and 8b), COS-1 cells were transfected for 24 hours, treated with 0.5 μM of compounds for 18 hours, and then imaged as described above. Referring to FIG. 6C, for the BiFC screen of compounds 23-26 (including 8a and 8b), COS-1 cells were transfected for 24 hours, treated with 0.25 M of compounds for 18 hours, and then imaged as described above. BiFC drug screens were performed in single biological replicate as a high throughput screen to produce ranked order of compounds, although multiple biological replicate data was used whenever available.
# [3] = target: T1, PRMT5:MEP50 protein-protein interaction; assay: Co-immunoprecipitation western blot in LNCaP cells; details: 500 nM, 24 hrs, three biological replicates
# Description: LNCaP cells were treated with either DMSO or compound 17 (500 nM, 24 hrs) and harvested for Co-IP and WB in lysis buffer composed of 50 mM Tris-HCl, pH 7.4, 100 mM NaCl, 10 mM EDTA, 0.1% Triton X-100, 1 mM DTT, 1 mM PMSF, and 5 μg each of chymostatin, leupeptin, pepstatin A, and […]. Cells were lysed over 1 hour rotating in 4° C. and supernatant cleared. Total lysate (1 mg/mL) was used for Co-IP with 4 μg rabbit anti-PRMT5 pAb (Millipore Sigma 07-405), rabbit anti-MEP50 pAb (Cell Signaling Technologies S2823S) or normal rabbit IgG (Millipore Sigma N01-100 UG) overnight. Antibody-bound proteins were precipitated with Pierce Protein A agarose beads (Thermo Scientific 20333). Antibodies and immunoprecipitated proteins were prepared for western blot by adding 50 μL 2×SDS buffer, boiling at 95° C. for 5 min, and storing at -80° C. or proceeding to western blot. Co-IP product, input sample, or ladder were loaded into a 10% acrylamide/bisacrylamide gel (20 μL Co-IP, 20 μL input (0.4% total), 5 μL ladder per lane). […] Band Intensity was determined with ImageLab software and ImageJ.
# A549 cells = assay: IC50 in A549 NSCLC cell line; details: 72 hours treatment
# TP53 = assay: RT-qPCR expression of TP53 in LNCaP cells; details: 500 nM, 72 hours
# Description: as §1
# LNCaP cells = assay: MTT assay / growth of LNCaP cells; details: for IC50: 72 hours treatment
# Description: LNCaP cells were seeded at 7,000 cells per well of a 96-well cell culture plate and incubated 24 hours to allow for attachment. Test compounds were diluted in RPMI-1640/25% DMSO pre-dilutions and added to respective wells of the assay plate to maintain constant concentration of 0.25% DMSO. After addition of compounds, cells were returned to incubator (37° C., 5% CO2) for 72 hours. Following incubation, assay plates were removed from incubator and media aspirated. 30 μL complete RPMI supplemented with 0.5 mg/mL MTT (Sigma) was added to the plate, and plate returned to incubator for 4 hours. Plates were removed, and 88 μL DMSO was added. Plates were shaken at 700 rpm for 1 minute and read on spectrophotometer at 570 nm.
# H4R3me2s = assay: Global histone H4R3me2s western blot in LNCaP cells; details: 72 hours
# Description: For global histone H4R3 and H4R3me2s western blots, cell lysate was prepared in RIPA buffer (10 mM Tris-HCl pH 8.0, 5 mM EDTA, 1% Triton X-100, 0.1% sodium deoxycholate, 0.1% sodium dodecyl sulfate, 150 mM sodium chloride, and 5 μg/mL each chymostatin, leupeptin, pepstatin A, and antipan in DMSO, with 1 mM PMSF and total soluble protein was quantified using Bradford assay. 100 μL lysate was combined with 100 μL 2×SDS buffer, and 20 μg total lysate was loaded into the wells of a 15% acrylamide/bisacrylamide gel. The gel was run for 60 min at 125 V and transferred onto nitrocellulose membrane for 45 min at 100 V. Anti-H4R3 rabbit pAb (Abcam, ab10158) or anti-H4R3me2s rabbit pAb (Abcam, ab5823) was diluted 1:1000 in PBST and incubated overnight at 4° C. Secondary IRDyeR 800CW Donkey anti-Rabbit IgG Secondary Antibody (Li-Cor, 926-32213) was diluted 1:20,000 in PBST and incubated with the membrane, which was then imaged via LiCor Odyssey CLx imager and analyzed with ImageStudioLite software (Li-Cor). Integrated intensity of H4R3me2s band was normalized to H4R3 to determine relative abundance of H4R3me2s across DMSO and Cpd 17-treated samples.
# RB1 = assay: RT-qPCR expression of RB1 in LNCaP cells; details: 500 nM, 72 hours
# Description: as §1
# COS-1 cells = assay: Cell death seen in COS-1 cells during the BiFC screen; details: 10 μM
# Description: as §2, with “Referring to FIGS. 6A-6C, for the BiFC screen of compounds 13-22 (including 8a and 8b), COS-1 cells were transfected for 24 hours, treated with 0.5 μM of compounds for 18 hours, and then imaged as described above. Referring to FIG. 6C, for the BiFC screen of compounds 23-26 (including 8a and 8b), COS-1 cells were transfected for 24 hours, treated with 0.25 M of compounds for 18 hours, and then imaged as described above. BiFC drug screens were performed in single biological replicate as a high throughput screen to produce ranked order of compounds, although multiple biological replicate data was used whenever available.” left out
# T1 sequence (O14744 whole entry): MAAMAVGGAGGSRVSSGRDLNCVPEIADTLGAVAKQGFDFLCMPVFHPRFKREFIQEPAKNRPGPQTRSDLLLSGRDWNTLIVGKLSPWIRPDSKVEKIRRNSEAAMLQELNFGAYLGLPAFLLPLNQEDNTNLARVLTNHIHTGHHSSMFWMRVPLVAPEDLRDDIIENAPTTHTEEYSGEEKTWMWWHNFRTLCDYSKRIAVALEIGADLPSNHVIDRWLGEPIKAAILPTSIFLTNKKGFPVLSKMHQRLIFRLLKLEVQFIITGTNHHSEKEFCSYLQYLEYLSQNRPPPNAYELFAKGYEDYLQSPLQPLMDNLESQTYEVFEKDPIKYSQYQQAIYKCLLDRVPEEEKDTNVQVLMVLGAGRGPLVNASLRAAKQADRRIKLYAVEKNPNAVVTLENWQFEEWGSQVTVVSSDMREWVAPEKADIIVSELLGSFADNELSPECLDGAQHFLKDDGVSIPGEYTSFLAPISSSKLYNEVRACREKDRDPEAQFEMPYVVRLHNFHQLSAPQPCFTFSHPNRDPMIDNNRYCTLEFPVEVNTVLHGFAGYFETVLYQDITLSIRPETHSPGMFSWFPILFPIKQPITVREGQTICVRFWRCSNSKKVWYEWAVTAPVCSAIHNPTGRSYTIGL
rank in BiFC screen (inhibition of PRMT5:MEP50) ([2]; 250 nM),rank in BiFC screen (inhibition of PRMT5:MEP50) ([2]; 500 nM),decrease in amount of MEP50 co-immunoprecipitated with PRMT5 bait [3] [%],IC50 (A549 cells) [nM],"IC50 (A549 cells; Homo sapiens, A549, 72 h) [nM]",IC50 (LNCaP cells) [nM],SMILES,expression of PRMT5:pICln-regulated AR gene [1],expression of PRMT5:MEP50-regulated IVL gene (Involucrine (IVL) gene),expression of PTEN (PTEN),expression of TP53 (TP53),"IC50 (LNCaP cells; Homo sapiens, LNCaP, 72 h) [nM]","suppression of growth and induction of cell death (LNCaP cells; LNCaP cells, 250 nM, 500 nM and 1000 nM, 72 hours)","dose dependence of global H4R3me2s levels (H4R3me2s; LNCaP cells, 250, 500 and 1000 nM)",decrease of global H4R3me2s (H4R3me2s; LNCaP cells) [%],expression of RB1 (RB1),"inhibition at 0.25 µM ([2]; 0.25 μM, read-out: inhibition of the BiFC efficiency) [%]",dose-response of BiFC efficiency inhibition ([2]; 0.25-5 μM),cell death on treatment in the BiFC assay (COS-1 cells)
most effective,top four inhibitors,65.4,447,< 450,430,"CCc1noc(C)c1COc1cccc(C(=O)NNC(=O)c2ccc3ccccc3n2)c1 [compound 17, N′-(3-((3-ethyl-5-methylisoxazol-4-yl)methoxy)benzoyl)quinoline-2-carbohydrazide]",without significantly altering expression,significantly de-represses,upregulation,"to some extent TP53, albeit statistically insignificant",< 450,both suppression of growth and induction of cell death in a dose-dependent manner,decreased in a dose-dependent manner,65,upregulation,,,
,top four inhibitors,,,,,"Cc1noc(C)c1COc1cccc(C(=O)NNC(=O)c2ccc(C(F)(F)F)cn2)c1 [compound 15, N′-(3-((3,5-dimethylisoxazol-4-yl)methoxy)benzoyl)-5-(trifluoromethyl)picolinohydrazide]",,,,,,,,,,,,

SMILES,rank in BiFC screen (inhibition of PRMT5:MEP50) ([2]; 250 nM),rank in BiFC screen (inhibition of PRMT5:MEP50) ([2]; 500 nM),decrease in amount of MEP50 co-immunoprecipitated with PRMT5 bait [3] [%],IC50 (A549 cells) [nM],"IC50 (A549 cells; Homo sapiens, A549, 72 h) [nM]",IC50 (LNCaP cells) [nM],expression of PRMT5:pICln-regulated AR gene [1],expression of PRMT5:MEP50-regulated IVL gene (Involucrine (IVL) gene),expression of PTEN (PTEN),expression of TP53 (TP53),"IC50 (LNCaP cells; Homo sapiens, LNCaP, 72 h) [nM]","suppression of growth and induction of cell death (LNCaP cells; LNCaP cells, 250 nM, 500 nM and 1000 nM, 72 hours)","dose dependence of global H4R3me2s levels (H4R3me2s; LNCaP cells, 250, 500 and 1000 nM)",decrease of global H4R3me2s (H4R3me2s; LNCaP cells) [%],expression of RB1 (RB1),"inhibition at 0.25 µM ([2]; 0.25 μM, read-out: inhibition of the BiFC efficiency) [%]",dose-response of BiFC efficiency inhibition ([2]; 0.25-5 μM),cell death on treatment in the BiFC assay (COS-1 cells)
"Cc1noc(C)c1COc1cccc(C(=O)NNC(=O)c2ccc3ccccc3n2)c1 [compound 8, N′-(3-((3,5-dimethylisoxazol-4-yl)methoxy)benzoyl)quinoline-2-carbohydrazide]",,top four inhibitors,,,,,,,,,1660,,,,,41,dose-dependent manner,significant cell death

# Reference: patent publication US20260049064A1, “PROTEIN:PROTEIN INTERACTION INHIBITORS” (Purdue Research Foundation, priority 2022, published 2026)
